Measurements: patent US6020316A, “Glutaraldehyde modified chemotherapeutic agents and methods of use thereof” (priority 1998, dated 2000)

Legend:
[1] = tested on: HLC (lung carcinoma); test: Clonogenic survival of human lung carcinoma cells; assay type: cell-based; details: FIG. 3C
Method: (§1) Cells from the stock cultures were plated in 35 mm plastic tissue culture dishes at a density of 1×10^5 /cm^2. After 1 to 2 days, when the monolayer had reached a final density of 2-3×10^5 /cm^2, the cultures were washed twice with Dulbecco's phosphate-buffered saline and 2 ml of serum-free DMEM was added. […] After incubation for 3 hours at 37° C. in 10% CO2, the dishes were rinsed twice with phosphate-buffered saline (pH 7.4) to remove extracellular drugs, trypsinized, and plated for determination of clonogenic survival. Trypsinization involved dispersal of cells with 0.25% trypsin, followed by culture in DMEM plus 10% newborn calf serum for 7 days. Plates were examined after staining with methylene blue, and clones containing more than 10 cells were counted. The surviving fraction was the ratio of the plating efficiency of the cultures exposed to DOX divided by the plating efficiency of control cultures maintained in a medium of the same composition. Plating efficiency is defined as the number of colonies formed divided by the number of cells plated.

[2] = tested on: HTB (bladder transitional cell carcinoma); test: Clonogenic survival of human bladder transitional cell carcinoma cells; assay type: cell-based; details: FIG. 3A
Method: (§2) The murine L929 cell line, a human breast adenocarcinoma cell line (MCF-7) and a human bladder transitional cell carcinoma cell line (RT-4) were used to test the compounds of the present invention. All cell lines were obtained from MA Bioproducts (Bethesda, Md.) and were routinely maintained in high-glucose Dulbecco's Modified Eagle's Minimum Essential Medium (DMEM) and 10% newborn calf serum (L929) or 10% fetal calf serum (MCF-7 and RT-4). A DOX-resistant cell line, L929/DOX, was prepared by treating the L929 cell line with gradually increasing concentrations of DOX in vitro until a cell line that grew at a concentration of 50 μg/ml DOX was attained. A resistant subclone was then treated once with 100 μg/ml of DOX. The surviving resistant population was used in subsequent experiments. The L929/DOX cells were maintained in DMEM medium supplemented with 10% fetal calf serum and lacking DOX.
(§3) Cells from the stock cultures were plated in 35 mm plastic tissue culture dishes at a density of 1×10^5 /cm^2. After 1 to 2 days, when the monolayer had reached a final density of 2-3×10^5 /cm^2, the cultures were washed twice with Dulbecco's phosphate-buffered saline and 2 ml of serum-free DMEM was added. […] Plates were examined after staining with methylene blue, and clones containing more than 10 cells were counted. […]

[3] = tested on: MCF-7 (breast adenocarcinoma); test: Clonogenic survival of human breast adenocarcinoma cells; assay type: cell-based; details: FIG. 3B
Method: as §2, §3

[4] = tested on: L929 cells; test: Fluorescence uptake and localization of DOX and GLU-DOX in L929 cells; assay type: cell-based, murine
Method: Cells were grown on 25 mm diameter microscope cover slips (Thomas, Sweedsboro, N.J.) in 35 mm tissue culture dishes. […] The wells were then rinsed two times with phosphate buffered saline and changed to fresh medium. After incubation for 0 h or 2 h, the cover slips were extracted from the plates, rinsed with PBS, mounted in an Attofluor cell chamber (Molecular Probes, Inc. Eugene, Oreg.), and examined by epifluorescence using a Zeiss microscope equipped with a 63× immersion oil objective. The combination of G546 excitation filer, FT580 dichroic mirror, and LP590 emission filter allowed efficient detection of doxorubicin fluorescence at 590 nm. The fluorescence was detected by a CCD72S camera (Dage-MTI, Inc, Michigan City, Ind.) and images were acquired and analyzed using OPTIMAS software (Optimas Corp., Seattle, Wash.). […] Area (A) per fluorescent image, i.e., per cell, and mean gray per image (MI) were measured for at least 20 cells. Mean gray for a background area containing no cell images (MB) was also determined. Fluorescence units (F.U.) per cell were calculated as: [formula]

[5] = tested on: L929/DOX cells; test: Drug efflux from L929/DOX cells versus wild type cells; assay type: cell-based, murine
Description: The surviving resistant population was used in subsequent experiments.

[6] = tested on: tumor cell; test: Antitumor cell activity of DOX modified with other aldehydes and crosslinking agents; assay type: cell-based; details: substituted for glutaraldehyde in the basic modification protocol
Method: Other aldehydes and crosslinking agents that were substituted for glutaraldehyde in the basic modification protocol included acetaldehyde, butyraldehyde, hexanal, formaldehyde, succinyl chloride, glutaryl dichloride (all from Aldrich Chemical Co., Milwaukee, Wis.), DSG (disuccinimidyl glutarate), DMS (dimethylsuberimidate), and BS^3 (last three compounds from Pierce Chemical Co., Rockford, Ill.).
as §1

`COc1cccc2c1C(=O)c1c(O)c3c(c(O)c1C2=O)C[C@@](O)(C(=O)CO)C[C@@H]3O[C@H]1C[C@H](N)[C@H](O)[C@H](C)O1` [DOX, doxorubicin] was tested, and the “sensitivity to DOX” value [1] was “relatively insensitive”, the “sensitivity to DOX” value [2] was “relatively insensitive” and the “sensitivity to DOX” value [3] was “relatively insensitive”. The “Uptake: Mean Fluorescence Units per Cell” value ([4]; 5 μg/ml, 3 h at 37° C.) was 124 ± 29 Fluorescence Units per Cell, the “Uptake: Mean Fluorescence Units per Cell” value ([4]; 5 μg/ml, 3 h at 37° C. + 2 h chase) was 18 ± 6 Fluorescence Units per Cell and the “fluorescence after chase in drug-free medium” value ([4]; 2 hr chase, FIGS. 4B, 4D) was “nearly all DOX was lost from the cytoplasmic compartment although some nuclear fluorescence was still detectable”. The “subcellular distribution of fluorescence” value ([4]; 3 h exposure, 5 μg/ml, FIGS. 4A, 4C) was “in both nucleus and cytoplasm with distinct paranuclear concentration in some cells” and the “drug efflux from L929/DOX relative to wild type cells” value [5] was “pumped out of the L929/DOX cells much faster than out of the wild type cells”.

In the case of `CCCCCC=O` [hexanal], the “antitumor cell activity of the DOX reaction product relative to DOX” value [6] was “None of these compounds, when reacted with DOX, produced a derivative with increased antitumor cell activity relative to DOX”.

For `COC(=O)c1ccccc1-c1c2ccc(=N)cc-2oc2cc(N)ccc12` [rhodamine 123], the “intracellular localization compared with rhodamine 123” value ([4]; 2 h exposure, GLU-DOX (100:1) 5 μg/ml, rhodamine 123 10 μg/ml, FIGS. 5A, 5B) was “strikingly similar”.

With `O=C(Cl)CCC(=O)Cl` [succinyl chloride] the “antitumor cell activity of the DOX reaction product relative to DOX” value [6] was “None of these compounds, when reacted with DOX, produced a derivative with increased antitumor cell activity relative to DOX”.

acetaldehyde was tested, and the “antitumor cell activity of the DOX reaction product relative to DOX” value [6] was “None of these compounds, when reacted with DOX, produced a derivative with increased antitumor cell activity relative to DOX”.

With butyraldehyde the “antitumor cell activity of the DOX reaction product relative to DOX” value [6] was “None of these compounds, when reacted with DOX, produced a derivative with increased antitumor cell activity relative to DOX”.

In the case of formaldehyde, the “antitumor cell activity of the DOX reaction product relative to DOX” value [6] was “None of these compounds, when reacted with DOX, produced a derivative with increased antitumor cell activity relative to DOX”.

In the case of glutaryl dichloride, the “antitumor cell activity of the DOX reaction product relative to DOX” value [6] was “None of these compounds, when reacted with DOX, produced a derivative with increased antitumor cell activity relative to DOX”.
